According to patent US7485651B2, “Compounds with activity on muscarinic receptors” (Acadia Pharmaceuticals, Inc., priority 1998, dated 2009):

Columns and labels:
Type in all cases: cell-based
m3 receptor = target: T1, m3 receptor (Homo sapiens, UniProt P20309); assay: R-SAT / NIH 3T3 cells transfected with m3 muscarinic receptor
T1 construct: expressed in transfected cells; host or cells: NIH 3T3 (ATCC CRL 1658)
Description: (§1) A particularly convenient functional assay system is the receptor selection and amplification assay disclosed in U.S. Pat. No. 5,707,798 describing a method of screening for bioactive compounds by utilizing the ability of cells transfected with receptor DNA, e.g. coding for the different muscarinic subtypes, to amplify in the presence of a ligand of the receptor. Cell amplification is detected as increased levels of a marker also expressed by the cells.
(§2) Transfection of cells with muscarinic receptor DNAs (general procedure) NIH 3T3 cells (available from the American Type Culture Collection as ATCC CRL 1658) were grown at 37° C. in a humidified atmosphere (5% CO2) incubator in Dulbecco's modified Eagle's medium (DMEM) supplemented with 4.5 g/l glucose, 4 mM glutamine, 50 units/m1 penicillin, 50 units/m1 streptomycin (available from Advanced Biotechnologies, Inc., Gaithersburg, Md.) and 10% calf serum (available from Sigma, St. Louis, […].). The cells were treated with trypsin-EDTA, spun down and plated at 2×10^6 per 15 cm dish in 20 m1 of DMEM containing 10% calf serum.
(§3) The m1-m5 muscarinic receptor subtypes were cloned substantially as described by Bonner et al., Science 237, 1987, p. 527, and Bonner et al., Neuron 1, 1988, p. 403. For the m2 and m4 receptors, the cells were co-transfected with DNA encoding a chimera between the Gq protein and the five carboxy-terminal amino acids of the Gi protein (the Gq-i5 construct is described by Conklin et al., Nature 363, 1993, p.274).
(§4) On day one, the cells were transfected using the Superfect transfection reagent (available from Qiagen, Valencia, Calif.) in accordance with the manufacturer's instructions. Receptor DNA, β-gal DNA (pSI-β-galactosidase available from Promega, Madison, Wis.), chimeric Gq-i5 DNA for the m2 and m4 receptor subtype assays, and salmon sperm DNA (available from Sigma, St. Louis, […].) as filler to a total of 20 μg DNA was added per plate. Prior to addition to the plates, 60 μl Superfect was added to the DNA and mixed thoroughly by pipetting up and down several times. The mixture was incubated at room temperature for 10-15 minutes. The media were aspirated, and 12 ml fresh DMEM containing 10% calf serum and 50 units/m1 penicillin/streptomycin was added to the plates. The DNA-Superfect solution was mixed once more with a pipette and added to the plate which was swirled to distribute the DNA mixture evenly over the surface. The cells were incubated overnight at 37° C. and 5% CO2. After incubation, the media were aspirated and the plates were rinsed once with a 15 m1 volume of Hank's Buffered Saline. The plates were swirled to ensure thorough rinsing. 20 m1 fresh DMEM supplemented with 10% calf serum and 50 units/m1 penicillin/streptomycin was added to the plates. The cells were incubated for 24-48 hours until the plates were 100% confluent.
(§5) Assay of NIH 3T3 cells transfected with muscarinic receptor subtypes (general procedure) DMEM containing 2% Cyto-SF3 was heated at 37° C. in a water bath under sterile conditions. Sterile working stock solutions of test compounds to be assayed were prepared by diluting the compounds in DMEM to 8× the final concentration for testing. The compound (carbachol) to be included in the assay as a positive control was also diluted in DMEM to 8× the final concentration. 50 μL of the DMEM containing 2% Cyto-SF3 was added to each well of 96-well microtiter plates under sterile conditions. Then, 16 of compound solutions were added to the top wells of the plates, and dilution of the solutions was performed by taking 16 μl of the compound solutions from the top wells and pipetting them into the next row of wells. This procedure was repeated with each subsequent row of wells, except that 50 μl medium alone was added to the baseline control wells (the wells that contain medium and cells, but not test compounds) and plate control wells (wells containing medium, but not test compounds and cells). […]

m5 receptor = target: T2, m5 receptor (Homo sapiens, UniProt P08912); assay: R-SAT / NIH 3T3 cells transfected with m5 muscarinic receptor
T2 construct: expressed in transfected cells; host or cells: NIH 3T3 (ATCC CRL 1658)
T2 sequence (P08912 1-532): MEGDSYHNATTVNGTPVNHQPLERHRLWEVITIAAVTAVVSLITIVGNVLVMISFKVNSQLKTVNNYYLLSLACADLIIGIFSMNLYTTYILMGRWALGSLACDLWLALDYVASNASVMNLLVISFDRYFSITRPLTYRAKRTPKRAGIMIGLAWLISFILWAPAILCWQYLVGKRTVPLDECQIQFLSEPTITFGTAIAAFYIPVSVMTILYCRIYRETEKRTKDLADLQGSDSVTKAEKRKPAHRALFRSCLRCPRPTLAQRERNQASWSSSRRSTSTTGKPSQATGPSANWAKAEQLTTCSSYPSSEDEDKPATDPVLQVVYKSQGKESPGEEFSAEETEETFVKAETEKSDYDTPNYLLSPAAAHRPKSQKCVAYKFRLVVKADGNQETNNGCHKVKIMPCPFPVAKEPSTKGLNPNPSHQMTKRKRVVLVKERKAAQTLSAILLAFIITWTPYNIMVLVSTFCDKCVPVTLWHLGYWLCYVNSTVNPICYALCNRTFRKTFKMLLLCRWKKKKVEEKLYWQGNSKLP
Description: as §1, §2, §3, §4, §5

[1] = target: T3, α-adrenergic receptor subtype 1B (Homo sapiens, UniProt P35368); assay: Test against other receptors: α-adrenergic 1B
T3 sequence (P35368 1-520): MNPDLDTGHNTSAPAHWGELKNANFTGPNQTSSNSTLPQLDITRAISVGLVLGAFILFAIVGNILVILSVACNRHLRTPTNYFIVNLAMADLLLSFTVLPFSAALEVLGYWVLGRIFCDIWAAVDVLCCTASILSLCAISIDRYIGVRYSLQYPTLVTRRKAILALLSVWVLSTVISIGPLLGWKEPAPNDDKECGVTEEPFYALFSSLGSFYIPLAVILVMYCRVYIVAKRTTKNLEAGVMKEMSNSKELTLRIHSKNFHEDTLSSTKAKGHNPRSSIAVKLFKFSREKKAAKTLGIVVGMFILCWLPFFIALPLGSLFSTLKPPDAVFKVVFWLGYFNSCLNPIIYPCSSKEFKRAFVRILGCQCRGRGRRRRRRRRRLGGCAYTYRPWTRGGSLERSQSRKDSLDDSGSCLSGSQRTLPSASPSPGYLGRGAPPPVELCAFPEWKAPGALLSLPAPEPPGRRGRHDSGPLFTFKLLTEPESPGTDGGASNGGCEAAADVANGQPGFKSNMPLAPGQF

histamine H1 = histamine H1 (Homo sapiens, UniProt P35367); assay: Test against other receptors: histamine H1
histamine H1, sequence (P35367 whole entry): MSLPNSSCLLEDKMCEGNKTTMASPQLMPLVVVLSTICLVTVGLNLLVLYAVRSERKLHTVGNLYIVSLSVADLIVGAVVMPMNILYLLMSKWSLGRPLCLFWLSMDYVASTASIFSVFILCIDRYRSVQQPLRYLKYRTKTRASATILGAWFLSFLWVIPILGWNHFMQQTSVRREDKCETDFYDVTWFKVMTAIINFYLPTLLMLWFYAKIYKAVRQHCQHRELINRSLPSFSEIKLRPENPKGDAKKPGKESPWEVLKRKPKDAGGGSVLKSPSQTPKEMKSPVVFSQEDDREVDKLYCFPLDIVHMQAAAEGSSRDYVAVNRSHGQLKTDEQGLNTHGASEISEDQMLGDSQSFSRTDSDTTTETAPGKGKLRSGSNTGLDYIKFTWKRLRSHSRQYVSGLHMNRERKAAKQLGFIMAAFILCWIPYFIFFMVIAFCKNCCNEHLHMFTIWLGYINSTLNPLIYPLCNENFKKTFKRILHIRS

T1 sequence (P20309 whole entry): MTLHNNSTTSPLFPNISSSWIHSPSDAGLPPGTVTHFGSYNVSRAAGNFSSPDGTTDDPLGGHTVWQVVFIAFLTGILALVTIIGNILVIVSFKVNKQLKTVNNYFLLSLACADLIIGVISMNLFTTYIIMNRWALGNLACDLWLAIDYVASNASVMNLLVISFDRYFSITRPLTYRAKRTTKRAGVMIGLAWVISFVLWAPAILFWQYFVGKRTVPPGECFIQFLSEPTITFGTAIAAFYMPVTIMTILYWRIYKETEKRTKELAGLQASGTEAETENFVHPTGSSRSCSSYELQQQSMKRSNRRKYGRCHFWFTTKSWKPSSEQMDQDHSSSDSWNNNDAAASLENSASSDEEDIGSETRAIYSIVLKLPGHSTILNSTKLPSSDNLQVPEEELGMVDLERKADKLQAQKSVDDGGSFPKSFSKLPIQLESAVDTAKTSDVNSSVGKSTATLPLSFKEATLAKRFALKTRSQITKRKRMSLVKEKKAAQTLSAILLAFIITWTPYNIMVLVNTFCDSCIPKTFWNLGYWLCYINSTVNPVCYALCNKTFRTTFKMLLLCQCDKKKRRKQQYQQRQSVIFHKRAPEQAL

CCCCC1CCN(CCCC(=O)c2ccccc2C)CC1 [Compound A, 4-n-Butyl-1-[4-(2-methylphenyl)-4-oxo-1-butyl]piperidine]
agonist activity at the m3 receptor (m3 receptor): only activated the m1 receptor subtype | Emax at 1.5 µM (m3 receptor; NIH3T3, m3, compound at 1.5 μM, maximum = response to 10 μM carbachol, read-out: Cellular response as a percentage of the maximum response of the cells): 7% | antagonism of carbachol-induced responses (m3 receptor; m3): not an antagonist | agonist activity at the m5 receptor (m5 receptor): only activated the m1 receptor subtype | Emax at 1.5 µM (m5 receptor; NIH3T3, m5, compound at 1.5 μM, maximum = response to 10 μM carbachol, read-out: Cellular response as a percentage of the maximum response of the cells): 3% | antagonism of carbachol-induced responses (m5 receptor; m5): not an antagonist | agonist activity [1]: no significant activity | agonist activity (histamine H1): no significant activity
